Laboratory results taken from patent publication US20230293488A1, “COMPOSITIONS AND METHODS OF USE OF ANTIBACTERIAL DRUG COMBINATIONS” (priority 2015, published 2023).
Entries after “also recorded” stand apart in the source; their conditions may differ. Read-outs that look alike come from different tables or passages of the source.

Legend:
[1] = system: MRSA N315; experiment: MIC assay and FICI synergy determination (checkerboard); assay type: cell-based, Staphylococcus aureus; settings: Staphylococcus aureus, MRSA; single compounds; read-out: MIC in MRSA N315
Method: Microbiological Studies: MRSA N315 was a gift from Dr. Steven Gill, University of Rochester, Rochester, NY, USA. S. aureus ATCC 29213 was acquired from the American Type Culture Collection. De-identified clinical MRSA isolates were selected at random from the clinical isolate strain bank at Barnes-Jewish Hospital, St. Louis, MO, USA. Minimal inhibitory concentration (MIC) assays for inhibition of growth were performed following the recommendations of the Clinical and Laboratory Standards Institute (CLSI)^43. Briefly, 23 antibacterial compounds (Supplemental Table 1) were selected based on coverage of all major drug classes, including three compounds not classified as antibiotics for human use, but with known antibacterial properties. Compounds were dissolved in dimethyl sulfoxide (DMSO) to a stock concentration of 50 mg/ml. Exceptions: Sulfometuron at 20 mg/ml in DMSO; Tobramycin, D-cycloserine, and colistin at 50 mg/ml in H2O and filtered at 2 μm. The 23 compounds were formulated into all 253 possible unique pairwise combinations at fixed ratios and at 100× concentrations in solvent. To increase the range of concentrations assayed for possible synergistic or antagonistic drug interactions (>2,000-fold), the drug stocks were arrayed into threefold dilution series down eight rows in 96-well Costar master drug plates, using a BioMek FX robotic liquid handler (Beckman Coulter, Inc.). Drugs were then mixed 1:100 into 96-well plates containing 200 μl/well of cation-adjusted Mueller-Hinton broth (CAMHB). All drug susceptibility assay wells were inoculated with ˜1 μl of mid-log phase bacterial culture at 0.5 McFarland standard (˜2×10^8 CFU/ml) and grown at 37° C. for 24 h. Endpoint growth at 37° C. after 24 h was determined by optical density at 600 nm ≥0.1 using a Synergy H1 reader (BioTek, Inc.).
Synergy of antibiotic combinations was determined using the fractional inhibitory concentration index (FICI) method ^57,58. By this method, the MIC of the antibiotic compound in combination is divided by the MIC of the compound alone, yielding the fractional contribution of each drug component in the combination. Quotients for all in a combination are summed and drug interactions scored using the formula: FICI=(MIC Acomb A B C)/MICagent A+(MIC Bcomb A B C)/MICagent B+(MIC Ccomb A B C)/MICagentC Select pairwise combinations against MRSA were then combined with each of the 21 remaining single drugs to make triple combinations, formulated and tested in identical fashion to the double combinations. Synergy of combinations was confirmed via triplicate measurements of drug conditions at the MIC. Based on its high synergy against MRSA N315 in the sparse screening, ME/PI/TZ and its constituents were selected for further characterization. Final susceptibility testing of ME/PI/TZ and its components was performed using twofold dilution from 128 to 2 μg/ml for each component

[2] = system: MRSA N315; experiment: Adaptation and cross-resistance assays (11-day passage); assay type: cell-based, Staphylococcus aureus
Method: Adaptation and Cross-resistance Assays: 414 MRSA N315 was grown in 150 μl/well of CAMHB with constant shaking at 37° C. and passaged over 11 days in identical 96-well plates containing replicate threefold dilutions of ME/PI/TZ, ME/PI, ME/TZ, PI/TZ, ME, PI, and TZ. Top concentrations of drug combinations were 33.3 μg/ml for each component, while top concentrations for single drugs was 100 μg/ml. To test for cell viability, at the end of the assay on day 11, all wells from the plate were pinned with a sterile 96-pin replicator and transferred to CAMHB only. After passage, plates were filled 1:1 with 30% CAMHB/glycerol and frozen at −80° C. for later analysis.
Growth rate of isolates over passages in each condition was determined by linear best-fit of logarithm-converted exponential growth phase. […] Adapted isolates were retrospectively chosen from each combination or single compound in wells showing an increase in MIC or growth rate, frozen isolates were streaked out on agar plates to obtain single colonies, re-grown in broth conditions identical to those in which they grew originally, and then re-inoculated in sterile 96-well plates identical to the original 11-day 431 plates.

[3] = system: MRSA COL pbpA antisense (AS) strain; experiment: Xylose-inducible antisense-RNA strain susceptibility (PBP1 repression); assay type: cell-based, Staphylococcus aureus; settings: targeted repression of PBP1
Source text: (§1) We confirmed the targets of the constituents of ME/PI/TZ by reducing the expression of PBP1, PBP2, PBP2a or PBP3 using a xylose-inducible antisense-RNA strategy in the MRSA COL strain background^49. When expression levels of PBP2a were attenuated, the strain behaved as a methicillin-susceptible S. aureus and was sensitized to all tested β-lactams (FIG. 6A-C).

[4] = system: MRSA COL pbp2 antisense (AS) strain; experiment: Xylose-inducible antisense-RNA strain susceptibility (PBP2 repression); assay type: cell-based, Staphylococcus aureus; settings: targeted repression of PBP2
Source text: as §1

[5] = target: allosteric site of PBP2a (Staphylococcus aureus, UniProt P07944); experiment: Binding to the allosteric site of PBP2a
Sequence of allosteric site of PBP2a (P07944 whole entry): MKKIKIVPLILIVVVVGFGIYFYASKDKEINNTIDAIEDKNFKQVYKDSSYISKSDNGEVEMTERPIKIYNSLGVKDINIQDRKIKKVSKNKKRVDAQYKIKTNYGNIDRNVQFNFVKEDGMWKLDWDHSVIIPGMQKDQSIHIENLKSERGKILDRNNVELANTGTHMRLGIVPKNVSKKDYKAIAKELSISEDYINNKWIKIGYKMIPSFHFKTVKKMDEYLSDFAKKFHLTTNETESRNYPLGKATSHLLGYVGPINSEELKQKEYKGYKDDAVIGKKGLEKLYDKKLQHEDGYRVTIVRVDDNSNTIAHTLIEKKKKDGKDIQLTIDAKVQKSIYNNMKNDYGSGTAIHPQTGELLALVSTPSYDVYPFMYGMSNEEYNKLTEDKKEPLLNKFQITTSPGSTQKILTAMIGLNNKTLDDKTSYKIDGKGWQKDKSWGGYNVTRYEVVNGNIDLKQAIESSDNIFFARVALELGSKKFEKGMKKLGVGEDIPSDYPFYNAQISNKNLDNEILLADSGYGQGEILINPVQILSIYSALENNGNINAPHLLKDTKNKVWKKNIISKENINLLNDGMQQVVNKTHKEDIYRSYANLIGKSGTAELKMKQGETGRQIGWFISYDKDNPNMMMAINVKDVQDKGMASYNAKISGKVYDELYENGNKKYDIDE

[6] = in vivo, iv; cited from earlier work

Structure (SMILES) | MIC [1] | collateral effect on susceptibility ([2]; MRSA N315 after prior exposure to ME/TZ) | collateral effect on susceptibility ([2]; MRSA N315 after prior exposure to tazobactam) | collateral effect on susceptibility ([2]; MRSA N315 after prior exposure/adaptation to meropenem) | susceptibility under xylose induction [3] | susceptibility under xylose induction [4] | collateral effect on susceptibility ([2]; MRSA N315 after prior exposure to PI/TZ) | collateral effect on susceptibility ([2]; MRSA N315 after prior exposure/adaptation to piperacillin) | Kd ([5]; read-out: dissociation constant (Kd)) | Kd ([5]; read-out: dissociation constant (Kd), equivalent (converted)) | mean peak plasma concentration [6]
CCN1CCN(C(=O)N[C@@H](C(=O)N[C@@H]2C(=O)N3[C@@H]2SC(C)(C)[C@@H]3C(=O)O)c2ccccc2)C(=O)C1=O [Piperacillin] | 64 µg/mL | strong reciprocal collateral sensitivity | Collateral sensitivity | strong reciprocal collateral sensitivity | increased susceptibility | increased susceptibility; also recorded: increased effectiveness |  |  |  |  | 
C[C@@H](O)[C@H]1C(=O)N2C(C(=O)O)=C(S[C@@H]3CN[C@H](C(=O)N(C)C)C3)[C@H](C)[C@H]12 [Meropenem] | 16 µg/mL |  |  |  | increased susceptibility; also recorded: larger zones of inhibition | increased susceptibility; also recorded: increased effectiveness | sensitized | sensitizes; also recorded: strong reciprocal collateral sensitivity | 270 ± 80 µM | 271 µM | 112 µg/mL
